Test results taken from a melting point compilation (Tetko et al.; mined from patent text by program, amines drawn as free bases though some values may be those of a salt).

Row | SMILES | melting point
1 | COC1C(OC(N)=O)CCC2(CO2)C1C1(C)OC1CC=C(C)C (stereo not drawn) | 125 to 126 °C
2 | COc1ccc(CCN(C)C(=O)/C=C/c2cccnc2)cc1OC | 84 to 86 °C
3 | CCCCCCCCCCNC(=O)c1cc(C(=O)NCCCCCCCCCC)cc([N+](=O)[O-])c1 | 115 to 116 °C
4 | COc1ccc2ncc([N+](=O)[O-])c(Nc3ccccc3Cl)c2c1 | 163 to 165 °C
5 | CCCc1csc2ncc(C(=O)OC)n12 | 149 to 150 °C
6 | O=C1CCCCN1Cc1ccc(CCn2cnc3cc(-c4ccc(F)cc4)sc3c2=O)cc1 | 216 to 217 °C
7 | O=C1Nc2c(Br)cc(Br)c3cccc1c23 | 259 to 260 °C
8 | Cc1cc2c(cc1C(=O)c1ccccc1Cl)OC(C(=O)O)O2 (stereo not drawn) | 133 to 135 °C
9 | Cc1cc(=O)c2ccccc2s1 | 70 °C
10 | CCCc1nc2c(N)nc3ccccc3c2n1CCCCCC(C)=O | 161 to 163 °C
11 | CCCCCCCCCCCCc1c(C(=O)OCC)[nH]c(C)c1C | 70 to 71 °C
12 | CCOC(=O)Cc1ccc2c(c1)sc1cc(N(C)C)ccc12 | 115 to 120 °C
13 | COC(=O)c1cc2ccc3[nH]ccc3c2[nH]1 | 183 to 184 °C
14 | COc1cc(C(=O)NCCc2ccc(F)cc2)cnc1C(=O)O | 110 °C
15 | COc1ccc(N2CCN(Cc3cc4ccccc4[nH]c3=O)CC2)cc1 | 263 to 266 °C
16 | COC(=O)Nc1cc(N2CC=CCC2)nc2nc(=O)on12 | 213 to 214 °C
17 | COc1cc2c(cc1[N+](=O)[O-])CCN(CCCCl)C(=O)C2 | 127 to 128 °C
18 | COC(CBr)(CCCC(=O)NN)OC | 58 to 60 °C
19 | COc1ccc(CC(O)C(=O)c2ccccc2)cc1 (stereo not drawn) | 100 °C
20 | COc1ccc2[nH]c(C)c(SC)c2c1 | 55 to 56.5 °C
21 | O/N=C1/c2ccccc2OC12CCCCCC2 | 104 to 106 °C
22 | O=C(Nc1ccc2ccc(Oc3ccccc3)nc2n1)C1=CSCCS1 | 240 °C
23 | CN1C(=O)CC[C@]2(C)c3ccc(Sc4nc5c(OC(F)(F)F)cccc5s4)cc3CC[C@@H]12 | 168 to 173 °C
24 | Cc1ncsc1C(=O)Nc1ccc(-n2nc(C(F)(F)F)c(Cl)c2C2CC2)nc1 | 144 to 149 °C
25 | O=C(Nc1cccc(S(=O)(=O)N2CCOCC2)c1)c1cnn2c(C(F)F)cc(-c3ccc(Cl)c(Cl)c3)nc12 | 231 °C

Row | SMILES | melting point
26 | CCCc1cc(N2CCC(NCC(O)c3ccc4ccccc4n3)CC2)nc2sc(C(N)=O)c(N)c12 (stereo not drawn) | 159 to 161 °C
27 | O=c1cnc(C(F)(F)F)cn1-c1c(Cl)cc(C(F)(F)F)cc1[N+](=O)[O-] | 145 to 147 °C
28 | CCOC(=O)CCCCn1c(C(=O)OCC)cc2c(Cl)cc(O)cc21 | 74 to 76 °C
29 | COc1cc(C=CC=O)ccc1OC(C)c1nc(-c2ccccc2)oc1C (stereo not drawn) | 152 to 153 °C
30 | CS(=O)c1ccc(-c2cnn3c(O)ncnc23)cc1 (stereo not drawn) | 285 to 286 °C
31 | COc1cccc(C(C)(C)C(=O)O)c1 | 46 to 47 °C
32 | O=C1CCC(N2Cc3c(OCc4cccc(CN5CCn6nc(C(F)(F)F)nc6C5)c4)cccc3C2=O)C(=O)N1 (stereo not drawn) | 213 to 215 °C
33 | CCCCCCc1nccc2c(CC(=O)O)cccc12 | 152 °C
34 | Cn1c(=O)oc2cc3c(cc21)C1(CO3)C(=O)N(CC2CCCO2)c2ccccc21 (stereo not drawn) | > 250 °C
35 | O=c1[nH]c(CO)nc2cc3c(cc12)CCC3 | 205 to 210 °C
36 | COc1ccc(F)cc1C1OC(=O)CC1C(=O)O (stereo not drawn) | 41 to 43 °C
37 | O=c1[nH]c2ccc(C#CCCN3CCC(Cc4ccccc4)CC3)cc2[nH]1 | 221 to 223 °C
38 | COC(=O)c1cc2c(Br)cccc2n1C | 85 to 86 °C
39 | CS(=O)(=O)Nc1ccc(F)c(C(=O)CBr)c1 | 110 to 113 °C
40 | O=C1c2c(Br)cccc2-n2cnc(I)c2[C@@H]2CCCN12 | 301 to 303 °C
41 | COc1c(F)cc(CCC(=O)O)cc1F | 72 to 73 °C
42 | C#Cc1ccc(Cn2cc(-c3ccc(OC)cc3)ccc2=O)cn1 | 273 °C
43 | COc1cc(=O)c2c([nH]c1=O)CC(Cl)C(Cl)C2 (stereo not drawn) | 229 to 230 °C
44 | CN1C2CCC1CC(O)(c1ccccc1)C2 (stereo not drawn) | 157 to 159 °C
45 | CCCNC(=S)NS(=O)(=O)c1cc2c(cc1OC)OC(C)(C)C(NC(=O)c1cc(Cl)ccc1OC)C2 (stereo not drawn) | 210 to 211 °C
46 | CC(=O)N1CCc2c(N)cccc2C1 | 107 to 108 °C
47 | CN(C1CCC(=O)CC1)S(=O)(=O)c1ccc(Nc2nccc(Nc3ccc(F)cc3)n2)cc1 | 203 °C
48 | CC(C)CCC(O)C(CC1CCCCC1)NC(=O)C(Cc1c[nH]cn1)N(C)C(=O)C(Cc1ccccc1)OC(=O)N(C)CCN(C)C(=O)N1CCOCC1 (stereo not drawn) | 69 to 74 °C
49 | COc1cc(C)nc(NC(=O)NS(=O)(=O)c2cccc3cc[nH]c23)n1 | 207 to 209 °C
50 | CCn1ncc2c3noc(-c4ccc(OC)cc4)c3cnc21 | 215 to 216 °C

The next lines start with the values.

Row | melting point | SMILES
51 | 176 °C | CC1=C(C=O)C(C)(C)c2c(C)c(C)c(C)c(C)c21
52 | 142 °C | Cc1nc(N2CCN(C(=O)c3ccco3)CC2)nnc1-c1ccccc1
53 | 174 °C | NC(=O)Cc1ccc2c(c1)CCc1ccccc1C2=O
54 | 116 to 117 °C | CCN(CC)CCNC(=O)c1cccc2c(=O)c(C)c(-c3cccc(Cl)c3)oc12
55 | 190 to 193 °C | COC(=O)c1cc(-c2ccc(S(C)(=O)=O)cc2)n(-c2ccccc2)n1
56 | 66 to 67 °C | N#Cc1ncc(Cl)nc1Br
57 | 157 to 159 °C | C1=C[C@H]2CCN(CC3CC3)C[C@@H]2Cc2ccccc21 (relative stereo)
58 | 277 to 279 °C | Cc1n[nH]c2cc(-c3nn(Cc4oc5ccc(F)cc5c(=O)c4-c4ccccc4)c4ncnc(N)c34)ccc12
59 | 75 to 78 °C | O=C(NCCSCc1cccc(I)c1)c1c(Cl)cccc1Cl
60 | 118 to 119 °C | ClCc1ccnc(OCc2cn3c(Cl)cccc3n2)c1
61 | 138 °C | COc1ccc(C2(c3ccc(OC)cc3)CC2(Cl)Cl)cc1
62 | > 320 °C | O=c1cnc2cc3[nH]c(-c4ccncc4)nc3cc2[nH]1
63 | 240 to 241 °C | Cc1csc(-c2c(C)c(NC(=O)CC(C)(C)C)c(C)c3c2OCC3c2ccc(C(C)C)cc2)n1 (stereo not drawn)
64 | 96 to 97 °C | COCOc1ccc(-n2nc(C(F)(F)F)cc2-c2ccc(S(C)(=O)=O)cc2)cc1
65 | 168 to 170 °C | COc1cc(N=C(NC#N)Oc2ccccc2)cc(C(F)(F)F)c1
66 | 194 to 195 °C | COc1ccc2cc(-c3cc4ccccc4o3)ccc2c1
67 | 168 to 170 °C | O=C1NC(=O)C(=Cc2ccc(OCCN3c4ccccc4Sc4ccccc43)cc2)S1
68 | 146 to 147 °C | Cc1c(CNCC2CCOCC2)[nH]c2ccc(NC(=O)c3ccc(OC[C@@H]4CCCO4)cc3)cc12
69 | 176 to 178 °C | CC(c1oc2ccccc2c(=O)c1-c1cccc(F)c1)n1nc(-c2ccc(OCc3ccccc3)cc2)c2c(N)ncnc21 (stereo not drawn)
70 | 44 to 47 °C | COCCOCCOc1ccc(C=O)cc1
71 | 212 to 214 °C | CCCc1nc2c(N)nc3ccccc3c2n1CCS(C)(=O)=O
72 | 188 to 189 °C | COc1ccc(C(=O)Nc2ccccc2)cc1NC(=S)Nc1cccc([N+](=O)[O-])c1
73 | 139 to 141 °C | COC(=O)c1nc(-c2ccc(Cl)c(F)c2F)nc(N)c1/C=C/[Si](C)(C)C
74 | 176 °C | CC(=O)NC[C@H]1CN(c2ccc(N3CCN(c4ccc(C=O)o4)CC3)c(F)c2)C(=O)O1
75 | 84 °C | CCCOc1cccc2c1OCN(CCc1ccccc1)C2
76 | 162 to 164 °C | O=C1NCCc2ccc(OCCCN3CCN(c4cccc(Cl)c4Cl)CC3)cc21
77 | 184 to 187 °C | N#CCOc1ccc2cc(-c3cnc(Cc4ccccc4)o3)ccc2c1

Row | melting point | SMILES
78 | 73 to 74 °C | C=CCn1cnc2c1c(=O)n(CCC(C)C(C)=O)c(=O)n2C (stereo not drawn)
79 | 175 to 190 °C | CNC(=O)CC(S)C(CC(C)C)C(=O)NC(Cc1ccc(OC)cc1)C(=O)NC (stereo not drawn)
80 | 220 to 222 °C | Clc1cc(Br)c2oc3c(Cl)c(Br)c(Cl)c(Br)c3c2c1
81 | 175 to 178 °C | CCCc1nc2c(N)nc3cc(OCc4ccccc4)ccc3c2s1
82 | 168 to 178 °C | CN(CCO)c1cccc2c1C(=O)c1c(cccc1N(C)CCO)C2=O
83 | 110 to 114 °C | CCOc1ccn(C2OC(CO)C(O)C2O)c(=O)n1 (stereo not drawn)
84 | 151 to 155 °C | COc1cc(C(=O)NS(=O)(=O)c2ccccc2)ccc1Cn1ccc2ccc(N)cc21
85 | 79 °C | CC1(C)Cc2c(cc(C(C)(C)C)c(O)c2C(C)(C)C)S1
86 | 48 °C | COCCCNc1nc(Cl)cc(Cl)n1
87 | 122 °C | COc1ccc(S(=O)(=O)C(C)(Cc2ccc(OCCCN3CCC(c4cccc(Cl)c4)CC3)cc2)C(=O)NO)cc1 (stereo not drawn)
88 | 103 to 106 °C | COC(=O)C(C)(C)S(=O)(=O)N1CCC(c2ccc(Br)c(C)c2)CC1
89 | 161 to 164 °C | Cc1nc2c3c(ccc2n1C)CCC(c1ccccc1)O3 (stereo not drawn)
90 | 68 to 70 °C | COC(=O)c1ncoc1CCNC(=O)OCc1ccccc1
91 | 258 to 259 °C | CC1OC(=O)N2c3ccc(O)cc3CCC12 (stereo not drawn)
92 | 83 to 83.5 °C | CCCC1(CCC)Oc2c(ccc(O)c2C(C)=O)-c2ccccc21
93 | 118 to 121 °C | CC(C)(C(=O)O)c1nc2ccc(OCCCN3CCN(C(c4ccccc4)c4ccccc4)CC3)nn2c1Cl
94 | 145 °C | O=C1NCCN1C1CCN(CCC2CS(=O)c3ccccc3O2)CC1 (stereo not drawn)
95 | 230 °C | CC(=O)On1c(=O)c(=O)[nH]c2cc(C(F)(F)F)c(C#N)cc21
96 | 297 to 299 °C | Cc1nc(-c2cc(C(=O)O)c(=O)[nH]c2C)cs1
97 | 164 to 165 °C | O=C1C(=O)c2ccccc2C2=C1SCC1(CCN(CCCOc3ccc(F)cc3)CC1)O2
98 | 231 to 233 °C | CC(O)=C(C#N)C(=O)Nc1ccc([N+](=O)[O-])c(C)c1
99 | 71 to 73 °C | C=C(c1ccc(C#N)cc1)c1cncs1
100 | 191 to 192 °C | Cc1oc(-c2ccccc2)nc1CCOc1ccc(CC2SC(=O)NC2=O)cn1 (stereo not drawn)
101 | 160 to 162 °C | CC(=O)NCCc1cccc2ccc(OCCCCOc3ccc4occ(CCNC(C)=O)c4c3)cc12
102 | 243 to 247 °C | CC1(N)CN(c2c(F)c(N)c3c(=O)c(C(=O)O)cn(C4CC4)c3c2F)C1
103 | 183 to 186 °C | O=C(O)CCCn1sc2ccc([N+](=O)[O-])cc2c1=O
